According to US8883140B2 (Henkel AG & Co. KGaA, priority 2010, dated 2014):

Tested on: variant F49 of the protease from Bacillus lentus
Test: Residual proteolytic activity after storage in liquid washing agent (suc-AAPF-pNA release)
Format: biochemical
Conditions: 13 days at 30° C., based on initial activity of 100%
Text: A liquid washing agent of the following composition served as a baseline washing agent formulation (all indications in percent by weight): 0.3 to 0.5% xanthan, 0.2 to 0.4% antifoaming agent, 6 to 7% glycerol, 0.3 to 0.5% ethanol, 4 to 7% FAEOS (fatty alcohol ether sulfate), 24 to 28% nonionic surfactants, 1 to 2% sodium citrate (dihydrate), 2 to 4% soda, 14 to 16% coconut fatty acids, 0.5% HEDP (1-hydroxyethane-(1,1-diphosphonic acid)), 0 to 0.4% PVP (polyvinylpyrrolidone), 0 to 0.05% optical brightener, 0 to 0.001% dye, remainder demineralized water.
The oligoaminobiphenyl oligocarboxylic acid 3,3-diamino-[1,1-biphenyl]-2,4-dicarboxylic acid was incorporated into this formulation as the component stabilizing the hydrolytic enzyme, as indicated below (see Table 1, indications in this regard in wt %). Comparison formulations that contained either boric acid as an enzyme stabilizer, or no enzyme stabilizer, served as controls. The protease used was variant F49 of the protease from Bacillus lentus in accordance with WO 95/23221 (quantity used: 1 wt % active substance).
After storage, the respective residual proteolytic activity was determined by way of the release of the para-nitroaniline (pNA) chromophore from the suc-L-Ala-L-Ala-L-Pro-L-Phe-p-nitroanilide substrate (suc-AAPF-pNA) (SEQ ID NO. 1). The protease cleaves the substrate and releases pNA. The release of pNA causes an increase in extinction at 410 nm, the time course of which is an indication of enzymatic activity (see Del Mar et al., 1979). Measurement occurred at a temperature of 25° C., at pH 8.6 and at a wavelength of 410 nm. The measurement time was 5 min, with a measurement interval from 20 s to 60 s. The proteolytic activity values obtained are indicated in Table 1 below, based on an initial activity of 100% when storage began.

[1] = 1.0 wt % (1%) stabilizer in baseline liquid washing agent

Row | Compound | residual proteolytic activity after storage (0.1 wt % stabilizer in baseline liquid washing agent) [%] | residual proteolytic activity after storage (0.5 wt % stabilizer in baseline liquid washing agent) [%] | residual proteolytic activity after storage [1] [%] | residual proteolytic activity after storage (2.0 wt % stabilizer in baseline liquid washing agent) [%]
1 | Nc1cc(-c2cccc(N)c2C(=O)O)ccc1C(=O)O | 30.2 | 43.5 | 48.0 | 73.6
2 | OB(O)O [boric acid, reference compound] |  |  | 74.9 | 
